Results as given in patent publication US11225507B2, “Conformation switchable antimicrobial peptides and methods of using the same” (priority 2017, dated 2022).
Where two headings read alike, the source gives them in different places.

What was measured:
[1] = Circular dichroism (CD) secondary structure of polypeptides at different pH; assay type: physicochemical
Experimental: The secondary structure of the polypeptides at different pH value was then investigated by circular dichroism (CD). […] Distortion of helical conformation was noted when the pH was adjusted back to neutral (FIG. 1C).
The MALLS detector was calibrated using pure toluene and can be used for the determination of the absolute molecular weights (MWs). The MWs of polymers were determined based on the dn/dc value of each polymer sample calculated offline by using the internal calibration system processed by the ASTRA V software (version 5.1.7.3, Wyatt Technology, Santa Barbara, Calif., USA). Circular dichroism (CD) measurements were carried out on a JASCO J-815 CD spectrometer. The polymer samples were prepared at concentrations of 4.4 μM. The solution was placed in a quartz cell with a path length of 0.10 cm. The zeta-potential of polypeptides was evaluated by Malvern Zetasizer. Infrared spectra were recorded on a Perkin Elmer 100 serial FTIR spectrophotometer calibrated with polystyrene film. Lyophilization was performed on a FreeZonelyophilizer (Labconco, Kansas City, Mo., USA). UV light was generated from an OmiCure S1000 UV lamp (EXFO, Mississauga, Canada).

[2] = mouse, in vivo
Experimental: In vivo and ex vivo biodistribution of Cy5-PL2. Cy5-PL2 (2.6 μmol/kg), Cy5-PDL2 (2.6 μmol/kg) and PBS were administrated by oral gavage. Mice were placed on the sample stage equipped with anesthesia input and output ports, and imaged by the Bruker Xtreme In-Vivo Fluorescence Imaging System at 1 h, 2 h, 4 h, 7 h, and 24 h post injection (p.i.). The excitation filter was set at 630 nm and the emission filter was set at 700 nm. Collected images were analyzed by the Bruker molecular imaging software. Stomach, intestines, liver, lung, kidneys, heart, and spleen were harvested at 4 h or 24 h p.i. of Cy5-PL2 and imaged ex vivo using the Bruker Xtreme In-Vivo Imaging System. Ex vivo images were quantified by measuring FI at selected region of interest (ROI). All values were expressed as means±standard deviation (n=3). […] The other half of the stomach were placed into separate glass tubes containing 2 mL of lysis buffer (1% SDS, 100 10 mM Tris.HCl, pH 7.4, 1 tablet of EDTA-free protease inhibitor), homogenized, and incubated at 4° C. for 2 h. The lysates were then centrifuged at 3000 rcf for 10 min to remove the insoluble cell debris, and measured on a fluorescence spectrometer to determine the amount of Cy5 retained in the tissues. The amount of Cy5 was calculated based on the standard curve of Cy5 FI and normalized to percentage of injected dose (% I.D.) per gram tissue.

E. coli DH5α = test: Minimal inhibition concentration (MIC), E. coli DH5α; assay type: cell-based, Escherichia coli; details: pH 7.4
Experimental: (§1) Minimal inhibition concentration (MIC). Gram-negative bacteria, DH5α and MG1655 (E. coli) were grown in LB medium at 37° C. For determination of the MIC, polypeptides were dissolved in media using serial dilutions from a stock solution. Into each well of a 96-well plate was added 200 μL of each concentration and 2 μL of bacteria (1×10^8 CFU (colony forming units)) in medium. The plate was incubated at 37° C. The optical density readings of microorganism solutions were measured after 24 h incubation. The MIC was considered as the lowest concentration of peptide where no visual growth of bacteria was detected.

E. coli MG1655 = test: Minimal inhibition concentration (MIC), E. coli MG1655; assay type: cell-based, Escherichia coli; details: pH 7.4
Experimental: as §1

commensal bacteria = test: Killing effect against commensal bacteria in vivo (16S rRNA qPCR); details: mice, daily gavage for 3 consecutive days
Experimental: The bacterial load was determined by quantitative real-time PCR using a protocol modified from Stefka et al., and Buffie et al. (Stefka et al. (2014) Commensal bacteria protect against food allergen sensitization. Proc Natl Acad Sci USA 111:13145-13150; Buffie et al. (2012) Profound alterations of intestinal microbiota following a single dose of clindamycin results in sustained susceptibility to Clostridium difficile-induced colitis. Infect Immun 80:62-73). Fecal DNA was extracted as for sequencing, and bacterial load was quantified against a standard curve derived from apCR4TOPO-TA vector containing a nearly full-length copy of the 16S rRNA gene from a member of Porphyromonadaceae. Bacterial DNA was amplified with universal primers 8F and 338R using the iQ SYBR greensupermix (Bio-RadLifeScience) and the StepOne Plus system (AppliedBiosystems). The results were normalized to ileal content/fecal weight.

[3] = tested on: clinically isolated H. pylori strains, including clarithromycin-resistant J99A-7, J99A-11, J99C-8, and J99D-1; test: Bactericidal activity against clinically isolated H. pylori strains; assay type: cell-based, Helicobacter pylori; details: pH 3.0, 1 h incubation, 4.4 μM
Experimental: FIG. 3. HCT-AMPs effectively kill clinically isolated drug resistant H. pylori. (A) The bactericidal activity of PL2 against clinically isolated H. pylori strains. PL2, dissolved in the Tris-HCl buffer (pH 3.0), were incubated with clinically isolated strains in BB medium supplied with fresh urea, FBS and vancomycin (pH 3.0) for 1 h. The final concentration of PL2 was 4.4 μM. (B) The antibacterial activity of triple therapy against J99A-11 at pH 7.4 or 3.0. Concentrations of omeprazole, amoxicillin, and clarithromycin in OAC1 are 20.0 μM, 6.8 μM, and 1.9 μM, respectively; in OAC2 are 40.0 μM, 13.6 μM, and 3.8 μM, respectively; in OAC3 are 80.0 μM, 27.2 μM, and 7.6 μM, respectively (bars, left to right). (C) The antibacterial activity of omeprazole (0) and a combination of amoxicillin and clarithromycin (AC) against J99A-11 at pH 3.0. O1, O2, O3 represents the concentration of omeprazole at 20.0 μM, 40.0 μM, and 80.0 μM, respectively. AC1, AC2, AC3 represents the concentration of amoxicillin and clarithromycin at 6.8 μM and 1.9 μM, 13.6 μM and 3.8 μM, 27.2 μM and 7.6 μM, respectively.
H. pylori killing kinetics at various pHs. The killing kinetics of polypeptides were measured against H. pylori by counting the colony forming units (CFU) of alive bacteria with agar plating. […] The plates were incubated for 72 h in the incubator and the bacteria were counted for CFU. […]

H. pylori SS1 = test: Anti-H. pylori efficacy in vivo (infected C57BL/6J mice); parameters: species or system Helicobacter pylori; details: oral gavage once daily for 3 d, 2.6 μmol/kg
Experimental: Anti-H. pylori efficacy in vivo. […] For triple therapy, mice were first administered omeprazole (a proton pump inhibitor) through oral gavage at a dose of 400 μmol/kg, followed by a lag time of 30 min before administration of amoxicillin (68.0 μmol/kg) and clarithromycin (19.1 μmol/kg). PL2 and PDL2 in 5% (vol/vol) DMSO (both at 2.6 μmol/kg) were administered through oral gavage once daily for a consecutive 3 d. Water solution with 5% DMSO was served as negative control group. Forty-eight hours after the last administration, mice were killed and the stomach was removed from the abdominal cavity. The stomach was cut along the greater curvature, and the gastric content was removed and rinsed with PBS. The stomach sections were used for assessment of bacterial colonization. For bacterial colonization, a gastric tissue section was suspended in 1 mL PBS and homogenized for H. pylori recovery. The homogenate was serially diluted and spotted onto Columbia agar plate containing vancomycin (20 μg/mL), amphotericin (2 μg/mL), bacitracin (30 μg/mL) and nalidixic acid (10 μg/mL). The plates were then incubated at 37° C. under microaerobic conditions for 5 d, and bacterial colonies were enumerated and adjusted for dilutions.

(PGA)18-r-(PHLG-MHH)20 [PL2]
secondary structure (CD) ([1]; pH≤4.2): typical helical conformation | secondary structure (CD) ([1]; pH≥5.1): random coiled conformation | gastric retention [2]: ~6% | gastric retention ([2]; po, 2.6 umol/kg, 4 h): ~40 % ID/g | minimal inhibitory concentration (MIC) (E. coli DH5α): higher than 70 μM | minimal inhibitory concentration (MIC) (E. coli MG1655): higher than 70 μM | killing of commensal bacteria in the feces (commensal bacteria): did not cause undesired killing of the commensal bacteria | killing of commensal bacteria in the ileal contents (commensal bacteria): did not cause undesired killing of the commensal bacteria | bacterial strains killed [3]: over 90% | decrease of bacterial burden in the stomach as compared with the control group (H. pylori SS1): ~100 times
